# Experimental data taken from patent US20240389885A1, “DAILY FASTING METHANE TO DETECT INTESTINAL METHANOGEN OVERGROWTH AND MONITOR TREATMENT RESPONSE” (Cedars-Sinai Medical Center, priority 2021, published 2024).
# Experiments:
# [1] = tested on: canine small bowel transit; settings: infusion of CH4, canine; cited from earlier work
# [2] = tested on: subjects with IBS-C and IMO; assay: EASE-DO randomized double-blind placebo-controlled trial (NCT03763175); format: in vivo, human; settings: 14-week trial, adult patients with IBS-C and IMO, single daily oral doses vs placebo
# Source text: To evaluate the accuracy and temporal stability of SMM, and to assess its correlation with stool M. smithii loads, we analyzed data from a randomized double-blind placebo-controlled trial: Efficacy and Safety of Single, Daily Oral Doses of SYN-010 Compared to Placebo in Adult Patients with IBS-C (EASE-DO, NCT03763175).
# Trial details: Efficacy and Safety of Single, Daily Oral Doses of SYN-010 Compared to Placebo in Adult Patients with IBS-C (EASE-DO, NCT03763175) was a 14-week single-center randomized double-blind placebo-controlled trial evaluating the effects of lovastatin lactone on subjects with IBS-C and IMO. Subjects were excluded if they were on statins, fibrates, niacin, narcotics, laxatives, tegaserod, lubiprostone, linaclotide, metoclopramide, prucalopride, domperidone, plecanatide, CandiBactin, Atrantil, Allimax/Allimed, antibiotics within 2 months and opioids within 3 months prior to the study. If subjects were on probiotics or fiber supplements, they were asked to not change their dose. […] All subjects enrolled in this study completed a 2-hour breath test at their initial visit and their weekly complete spontaneous bowel movement (CSBM) and spontaneous bowel movement (SBM) were recorded. After recording their baseline CSBM and SBM for 2 weeks, subjects returned to the lab and their SMM and stool samples were collected (FIG. 1). […]
Structure (SMILES),effect on small bowel transit [1],"primary endpoint, interim futility analysis [2]"
"C [CH4, methane]",slows canine small bowel transit,–
"CC[C@H](C)C(=O)O[C@H]1C[C@@H](C)C=C2C=C[C@H](C)[C@H](CC[C@@H]3C[C@@H](O)CC(=O)O3)[C@H]21 [SYN-010, lovastatin lactone]",–,not meeting the primary endpoint
